Measurements reported in paper PMC3277506, “Extra-Renal Elimination of Uric Acid via Intestinal Efflux Transporter BCRP/ABCG2” (PLoS ONE, 2012).

What was measured:
[1] = Intestinal secretion of endogenous uric acid, in situ intestinal closed loop method, oxonate-treated rats; format: in vivo, rat; conditions: 60 min, no inhibitor
Procedure: We evaluated intestinal secretion of endogenous uric acid according to the method described previously, with some modifications. Rats were anesthetized with 50% urethane and treated with oxonate by the same method as in the in vivo animal study described above. Intestinal closed loops were made at different segments: jejunum (10 cm), ileum (10 cm), and colon (3–5 cm). Phosphate-buffered solution (PB, 0.075 M NaH2PO4 - 0.075 M Na2HPO4, pH 6.5) or inhibitor-containing PB was injected into the intestinal loop. After 60 min, the remaining luminal content in each loop was washed out and collected for quantitation. Blood was obtained from the jugular vein at 1, 20, 40 and 60 min. Plasma was obtained by centrifugation and used for quantitation.
The following equation was used to calculate intestinal secretory clearance (µL/min/cm loop) and estimated total intestinal secretory clearance (CLintestine, estimated) (mL/min): [drawing 1] [drawing 2] [drawing 3] where A is the amount of uric acid secreted into the intestinal lumen of each loop for 60 min, L is the length of the intestine, and AUC is area under the plasma concentration-time curve.

[2] = target: T1, rMrp2 (Rattus norvegicus, UniProt Q63120); experiment: [14C]uric acid uptake by rMrp2-expressing membrane vesicles; format: biochemical; conditions: [14C]uric acid 20 µM, 5 min, 37°C, 4 mM ATP or AMP
T1 construct: purchased GenoMembrane Inc. (Yokohama, Japan); host or cells: Sf9 cells
T1 sequence (Q63120 whole entry): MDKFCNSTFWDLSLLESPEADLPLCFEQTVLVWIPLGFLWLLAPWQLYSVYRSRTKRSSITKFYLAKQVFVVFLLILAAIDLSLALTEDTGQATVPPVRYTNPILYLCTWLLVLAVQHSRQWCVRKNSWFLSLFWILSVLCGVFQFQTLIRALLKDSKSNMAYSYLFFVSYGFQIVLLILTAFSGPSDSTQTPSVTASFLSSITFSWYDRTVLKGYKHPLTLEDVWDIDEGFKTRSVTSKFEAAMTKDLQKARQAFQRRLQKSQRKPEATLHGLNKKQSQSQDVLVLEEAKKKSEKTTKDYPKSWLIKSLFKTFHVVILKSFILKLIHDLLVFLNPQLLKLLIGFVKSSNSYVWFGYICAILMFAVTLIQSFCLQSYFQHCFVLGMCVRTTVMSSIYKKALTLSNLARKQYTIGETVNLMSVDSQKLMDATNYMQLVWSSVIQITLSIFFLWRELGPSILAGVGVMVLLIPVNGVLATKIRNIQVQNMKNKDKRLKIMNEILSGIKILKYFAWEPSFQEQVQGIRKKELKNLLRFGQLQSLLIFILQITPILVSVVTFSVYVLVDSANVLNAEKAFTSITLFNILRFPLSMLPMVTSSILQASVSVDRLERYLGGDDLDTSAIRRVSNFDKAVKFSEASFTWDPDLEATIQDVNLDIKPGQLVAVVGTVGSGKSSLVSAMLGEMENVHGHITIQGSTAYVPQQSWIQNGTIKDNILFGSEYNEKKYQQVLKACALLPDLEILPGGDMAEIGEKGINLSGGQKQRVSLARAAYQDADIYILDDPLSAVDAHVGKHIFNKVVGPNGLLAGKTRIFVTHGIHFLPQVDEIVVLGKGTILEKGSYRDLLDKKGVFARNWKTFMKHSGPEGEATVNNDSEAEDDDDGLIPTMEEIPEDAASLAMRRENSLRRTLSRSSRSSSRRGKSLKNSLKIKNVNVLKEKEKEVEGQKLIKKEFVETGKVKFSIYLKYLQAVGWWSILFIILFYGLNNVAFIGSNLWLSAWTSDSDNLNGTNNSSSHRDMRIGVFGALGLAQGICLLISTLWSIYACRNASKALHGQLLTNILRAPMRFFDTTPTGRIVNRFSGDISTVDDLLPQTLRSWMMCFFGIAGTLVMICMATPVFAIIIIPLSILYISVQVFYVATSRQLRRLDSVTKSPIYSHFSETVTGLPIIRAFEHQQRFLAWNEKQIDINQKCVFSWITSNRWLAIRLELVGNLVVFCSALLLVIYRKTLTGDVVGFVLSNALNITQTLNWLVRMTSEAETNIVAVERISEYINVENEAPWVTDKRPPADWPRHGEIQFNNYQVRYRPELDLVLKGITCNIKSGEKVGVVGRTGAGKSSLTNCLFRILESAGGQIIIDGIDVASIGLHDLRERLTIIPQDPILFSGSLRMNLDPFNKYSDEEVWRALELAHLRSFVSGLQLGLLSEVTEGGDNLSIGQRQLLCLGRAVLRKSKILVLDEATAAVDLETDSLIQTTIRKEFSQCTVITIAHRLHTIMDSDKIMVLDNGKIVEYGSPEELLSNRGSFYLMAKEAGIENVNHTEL
Procedure: (§1) hBCRP/rBcrp, hMRP2/rMrp2, or hMDR1-expressing membrane vesicles prepared from Sf9 cells were purchased from GenoMembrane Inc. (Yokohama, Japan). Uptake experiments were conducted as described previously. Briefly, after a pre-incubation for 5 min at 37°C, membrane vesicles (50 µg protein/50 µL final reaction volume) were incubated for 5 min at 37°C in the presence of 4 mM ATP or AMP in assay buffer (1 M KCl, 1 M MgCl2, and 100 mM MOPS-Tris, pH 7.0) containing [^14C]uric acid (1 µCi/mL). The uptake reaction was terminated by adding 1 mL ice-cold washing buffer (1 M KCl, and 100 mM MOPS-Tris, pH 7.0) to the membrane solution, and the mixture was rapidly filtered through a nitrocellulose filter (0.45 µm pore size, Millipore, Bedford, MA). The filters were washed twice with 5 mL ice-cold washing buffer. The filters were dried and dissolved in Clearsol-I for quantitation of radioactivity.

[3] = target: T2, hBCRP (Homo sapiens, UniProt Q9UNQ0); experiment: [14C]uric acid uptake by hBCRP-expressing membrane vesicles; format: biochemical; conditions: [14C]uric acid 20 µM, 5 min, 37°C, 4 mM ATP or AMP
T2 construct: purchased GenoMembrane Inc. (Yokohama, Japan); host or cells: Sf9 cells
T2 sequence (Q9UNQ0 1-655): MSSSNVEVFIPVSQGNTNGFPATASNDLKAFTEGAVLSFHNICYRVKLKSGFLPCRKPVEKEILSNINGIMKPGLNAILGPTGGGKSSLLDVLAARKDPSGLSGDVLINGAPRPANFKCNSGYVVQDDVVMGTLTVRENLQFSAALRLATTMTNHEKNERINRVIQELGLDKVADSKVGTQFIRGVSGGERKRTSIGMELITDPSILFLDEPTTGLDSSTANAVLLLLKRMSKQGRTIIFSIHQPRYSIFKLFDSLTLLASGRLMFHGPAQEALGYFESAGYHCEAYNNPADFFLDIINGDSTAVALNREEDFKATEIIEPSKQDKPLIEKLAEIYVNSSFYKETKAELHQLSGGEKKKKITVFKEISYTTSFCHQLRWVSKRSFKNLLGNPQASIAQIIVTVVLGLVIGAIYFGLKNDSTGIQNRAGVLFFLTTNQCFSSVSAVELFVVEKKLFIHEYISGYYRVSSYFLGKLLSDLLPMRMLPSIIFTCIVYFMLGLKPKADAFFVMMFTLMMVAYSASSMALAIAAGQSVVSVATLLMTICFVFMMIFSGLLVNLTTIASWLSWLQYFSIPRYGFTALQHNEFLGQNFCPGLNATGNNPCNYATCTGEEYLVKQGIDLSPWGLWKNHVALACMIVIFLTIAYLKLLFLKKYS
Procedure: as §1

## O=c1[nH]c(=O)c2[nH]c(=O)[nH]c2[nH]1 [uric acid]
[1]; colon closed loop
  Intestinal secretion clearance of endogenous uric acid: 0.76±0.17 µL/min/cm loop
[1]; ileum closed loop
  Intestinal secretion clearance of endogenous uric acid: 1.58±0.13 µL/min/cm loop
[1]; jejunum closed loop
  Intestinal secretion clearance of endogenous uric acid: 0.49±0.03 µL/min/cm loop
[2]
  ATP-dependent uric acid uptake: Slight
[3]
  Uptake of uric acid in the presence of ATP versus AMP: significantly higher
